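Grown in 96-well plates, cells were treated for 48 hours with each compound at five concentrations. Insufficient inhibition: endpoint recorded as highest concentration tested. TGI: concentration producing complete growth inhibition.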
Legend:
Test in all cases: NCI-60 cell line screen, 48 h
[1] = test system: COLO 205 colon
[2] = test system: SK-OV-3 ovarian
[3] = test system: SF-539 CNS
[4] = test system: UO-31 renal
[5] = test system: UACC-257 melanoma
[6] = test system: DU-145 prostate
[7] = test system: SF-295 CNS
[8] = test system: HOP-92 NSCLC
[9] = test system: LOX IMVI melanoma
[10] = test system: RXF 393 renal
[11] = test system: EKVX NSCLC
[12] = test system: HCT-15 colon
[13] = test system: TK-10 renal
[14] = test system: NCI-H460 lung
[15] = test system: HOP-62 NSCLC
[16] = test system: NCI-H226 lung
[17] = test system: SF-268 CNS
[18] = test system: MDA-MB-231 breast
[19] = test system: U251 CNS
[20] = test system: MOLT-4 leukemia
[21] = test system: MCF7 breast
[22] = test system: OVCAR-3 ovarian
[23] = test system: SK-MEL-5 melanoma
[24] = test system: T-47D breast
[25] = test system: ACHN renal
[26] = test system: SNB-75 CNS
[27] = test system: SNB-19 CNS
[28] = test system: MDA-N
[29] = test system: OVCAR-5 ovarian
[30] = test system: M14 melanoma
[31] = test system: OVCAR-8 ovarian
[32] = test system: 786-0 renal
[33] = test system: MDA-MB-435
[34] = test system: HCC-2998 colon
[35] = test system: SK-MEL-28 melanoma
[36] = test system: HCT-116 colon
[37] = test system: IGROV1 ovarian
[38] = test system: SK-MEL-2 melanoma
[39] = test system: HT29 colon
[40] = test system: UACC-62 melanoma
[41] = test system: KM12 colon
[42] = test system: NCI/ADR-RES ovarian
[43] = test system: CAKI-1 renal
[44] = test system: A498 renal
[45] = test system: NCI-H23 lung
[46] = test system: SW-620 colon
[47] = test system: HL-60(TB) leukemia
[48] = test system: BT-549 breast
[49] = test system: OVCAR-4 ovarian
[50] = test system: SN12C renal
[51] = test system: A549 NSCLC
[52] = test system: SR leukemia
[53] = test system: CCRF-CEM leukemia
[54] = test system: MALME-3M melanoma
[55] = test system: RPMI-8226 leukemia
[56] = test system: K-562 leukemia
[57] = test system: PC-3 prostate

SMILES: CCOP(=O)(OCC)/C(=C\n1c(=S)[nH]c2cc(C)ccc21)C(=O)OC
- TGI [1]: > 100 µM
- TGI [2]: > 100 µM
- TGI [3]: > 100 µM
- TGI [4]: > 100 µM
- TGI [5]: > 100 µM
- TGI [6]: > 100 µM
- TGI [7]: > 100 µM
- TGI [8]: > 100 µM
- TGI [9]: > 100 µM
- TGI [10]: > 100 µM
- TGI [11]: > 100 µM
- TGI [12]: > 100 µM
- TGI [13]: > 100 µM
- TGI [14]: > 100 µM
- TGI [15]: > 100 µM
- TGI [16]: > 100 µM
- TGI [17]: > 100 µM
- TGI [18]: > 100 µM
- TGI [19]: > 100 µM
- TGI [20]: > 100 µM
- TGI [21]: > 100 µM
- TGI [22]: > 100 µM
- TGI [23]: > 100 µM
- TGI [24]: > 100 µM
- TGI [25]: > 100 µM
- TGI [26]: > 100 µM
- TGI [27]: > 100 µM
- TGI [28]: > 100 µM
- TGI [29]: > 100 µM
- TGI [30]: > 100 µM
- TGI [31]: > 100 µM
- TGI [32]: > 100 µM
- TGI [33]: > 100 µM
- TGI [34]: > 100 µM
- TGI [35]: > 100 µM
- TGI [36]: > 100 µM
- TGI [37]: > 100 µM
- TGI [38]: > 100 µM
- TGI [39]: > 100 µM
- TGI [40]: > 100 µM
- TGI [41]: > 100 µM
- TGI [42]: > 100 µM
- TGI [43]: > 100 µM
- TGI [44]: > 100 µM
- TGI [45]: > 100 µM
- TGI [46]: > 100 µM
- TGI [47]: > 100 µM
- TGI [48]: > 100 µM
- TGI [49]: > 100 µM
- TGI [50]: > 100 µM
- TGI [51]: > 100 µM

SMILES: COc1ccc(-c2cc(-c3ccccc3)nc(N)c2-c2ccc3ccccc3c2)cc1
- TGI [1]: 3.21 µM
- TGI [52]: 7.31 µM
- TGI [2]: 17.4 µM
- TGI [4]: 5.13 µM
- TGI [5]: 3.52 µM
- TGI [53]: > 100 µM
- TGI [8]: 2.91 µM
- TGI [9]: 3.1 µM
- TGI [10]: 3.39 µM
- TGI [54]: 2.75 µM
- TGI [11]: 3.66 µM
- TGI [12]: 2.92 µM
- TGI [13]: 11.6 µM
- TGI [14]: 2.9 µM
- TGI [15]: 4.8 µM
- TGI [16]: 2.99 µM
- TGI [17]: 9.2 µM
- TGI [18]: 3.17 µM
- TGI [20]: 7.38 µM
- TGI [21]: 3.36 µM
- TGI [22]: 5.08 µM
- TGI [23]: 3.27 µM
- TGI [24]: 3.38 µM
- TGI [25]: 4.77 µM
- TGI [26]: 5 µM
- TGI [27]: 2.57 µM
- TGI [28]: 3.17 µM
- TGI [29]: 3.71 µM
- TGI [30]: 5.68 µM
- TGI [31]: 3.09 µM
- TGI [55]: 4.74 µM
- TGI [32]: 3.1 µM
- TGI [33]: 4.68 µM
- TGI [34]: 3.29 µM
- TGI [36]: 2.5 µM
- TGI [37]: 3.11 µM
- TGI [38]: 3.88 µM
- TGI [39]: 2.28 µM
- TGI [40]: 2.96 µM
- TGI [41]: 3.2 µM
- TGI [43]: 15.1 µM
- TGI [44]: 5.08 µM
- TGI [56]: > 100 µM
- TGI [45]: 3.71 µM
- TGI [48]: 3.09 µM
- TGI [57]: 5.45 µM
- TGI [49]: 2.42 µM
- TGI [50]: 3.43 µM
- TGI [51]: 5.39 µM

SMILES: O=C1C2=Cc3ccccc3OC2(O)Oc2cc(O)cc(O)c21 (stereo unspecified)
- TGI [1]: > 100 µM
- TGI [2]: > 100 µM
- TGI [3]: > 100 µM
- TGI [5]: > 100 µM
- TGI [6]: > 100 µM
- TGI [7]: > 100 µM
- TGI [53]: > 100 µM
- TGI [8]: > 100 µM
- TGI [9]: > 100 µM
- TGI [10]: > 100 µM
- TGI [54]: > 100 µM
- TGI [11]: > 100 µM
- TGI [13]: > 100 µM
- TGI [14]: > 100 µM
- TGI [15]: > 100 µM
- TGI [16]: > 100 µM
- TGI [17]: > 100 µM
- TGI [18]: > 100 µM
- TGI [19]: > 100 µM
- TGI [20]: > 100 µM
- TGI [21]: > 100 µM
- TGI [23]: > 100 µM
- TGI [24]: > 100 µM
- TGI [25]: > 100 µM
- TGI [26]: > 100 µM
- TGI [28]: > 100 µM
- TGI [29]: > 100 µM
- TGI [30]: > 100 µM
- TGI [31]: > 100 µM
- TGI [55]: > 100 µM
- TGI [32]: > 100 µM
- TGI [33]: > 100 µM
- TGI [34]: > 100 µM
- TGI [35]: > 100 µM
- TGI [36]: > 100 µM
- TGI [37]: > 100 µM
- TGI [38]: > 100 µM
- TGI [39]: > 100 µM
- TGI [40]: > 100 µM
- TGI [41]: > 100 µM
- TGI [42]: > 100 µM
- TGI [43]: > 100 µM
- TGI [44]: > 100 µM
- TGI [56]: > 100 µM
- TGI [45]: > 100 µM
- TGI [46]: > 100 µM
- TGI [48]: > 100 µM
- TGI [57]: > 100 µM
- TGI [49]: > 100 µM
- TGI [50]: > 100 µM
- TGI [51]: > 100 µM
